Source: US12144789B2, “Pharmaceutical composition exhibiting anti-tumor activity, method for treating patient suffering from cancer and method for inhibiting tumor growth” (Gongwin Biopharm Co., Ltd., priority 2016, dated 2024)
Where two headings read alike, the source gives them in different places.

Columns and labels:
Tca-8113 cells [1] = type: cell-based; details: human; for intracellular PTS concentration variation between Tca-8113 cells and HGF cells: 10 min
Procedure: Firstly, Tca-8113 were treated with PTS or dimethyl sulfoxide (DMSO) (control vehicle) and then extract the intracellular matrix subjected to high-performance liquid chromatography.
(§1) In assessing the accumulation of intracellular PTS between Tca-8113 cells and normal cells after different doses and incubation periods of PTS treatment, Tca-8113 and Human gingival fibroblast (HGF) cells were treated 2.5 μmol/l˜80 μmol/l PTS for different periods. Please see FIG. 2A and FIG. 2B, which show the plots of intracellular PTS concentration after 2.5 μmol/l˜80 μmol/l PTS treatment for different periods of time in Tca-8113 and HGF cell, respectively. […] However, the accumulated intracellular PTS concentration in […] cells is much higher than that in HGF cells. […] The intracellular PTS concentration variation between the Tca-8113 cells and HGF cells can range from 5× (20 μmol/l), 8× (40 μmol/l) to 12 (80 μmol/l).

[2] = system: Human gingival fibroblast (HGF) cells; type: cell-based; details: 10 min
Procedure: as §1

Tca-8113 cells [3] = assay: MTT cell viability assay; type: cell-based; details: for suppression ratio (cancer cell suppression %/normal cell suppression %): Tca-8113 vs HGF
Procedure: (§2) To examine the effects of PTS on cell viability, Tca-8113 and HGF cells were treated with different doses of PTS for 1 h. The 3-(4,5-dimethylthiazol-2-yl)-2,5-diphenyltetrazolium bromide (MTT) assay is conducted by treating Tca-8113 and human gingival fibroblast (HGF) cells with 2.5 μmol/l, 5 μmol/l, 10 μmol/l, 20 μmol/l, 40 μmol/l and 80 μmol/l PTS for 1 h, respectively. The effects of PTS on cell viability were assessed using MTT 72 h after treatment. […] PTS induces more significant cell death in […] cells than that in normal gingival fibroblasts. Taking the 10 μmol/l […] treatment for example, about 50% Tca-8113 cells were suppressed while only 10% […] cells were suppressed, so the suppression ratio (cancer cell suppression %/normal cell suppression %) is 5. Similarly, the suppression ratios of 20 μmol/l, 40 μmol/l and 80 μmol/l are 2.6, 1.8, 1.05.

[4] = system: Human gingival fibroblast (HGF) cells; type: cell-based
Procedure: as §2

Tca-8113 cells [5] = assay: Morphologic changes by phase-contrast microscope; type: cell-based; details: 40 μmol/l PTS for 1 h
Procedure: Next, in observing the morphological feature of the treated cells, Tca-8113 and HGF cells were treated with 40 μmol/l PTS or DMSO (control vehicle) for 1 h; the morphologic changes were observed using a phase-contrast microscope.

Tca-8113 cells [6] = assay: Colony formation assay; type: cell-based; details: 80 μmol/l PTS
Excerpt: Colony formation assay shown in FIG. 6 further confirms the cytotoxic effects of PTS on Tca-8113 cells.

Tca-8113 cells [7] = assay: cells; type: cell-based; details: 1 h
Procedure: Next, cancer cell death is measured by using flow cytometric analysis. Tca-8113 cells were treated with 40 μmol/l and 80 μmol/l PTS or DMSO (control) for 1 h. Cells were stained with Annexin V− FITC and propidium iodide (PI), followed by flow cytometric analysis.

Tca-8113 cells [8] = assay: Lactate dehydrogenase (LDH) release assay (necrosis); type: cell-based; details: 80 μmol/l PTS, 1 h
Procedure: Furthermore, in studying PTS-induced necrosis, LDH release assay is used. LDH is a cytosolic enzyme that can be released into culture medium upon damage of the plasma membrane. Necrosis, which results in an early loss of plasma membrane integrity, can be determined using the LDH release assay. In LDH release assay, Tca-8113 cells were treated with 80 μmol/l PTS or DMSO for 1 h; PTS-induced necrosis was determined using the lactate dehydrogenase (LDH) release assay.

Tca-8113 cells [9] = assay: Transwell migration assay; type: cell-based; details: 40 μmol/l PTS, 1 h
Procedure: The effect of PTS on the invasive ability of cancer cells is also investigated. Tca-8113 cells were treated with 40 μmol/l PTS or DMSO for 1 h; the effects of PTS on cell migration were determined using a transwell migration assay.

Tca-8113 cells [10] = assay: Transmission electron microscopy of ultrastructural changes; type: cell-based; details: 40 μmol/l PTS, 1 h
Procedure: To investigate the mechanisms of PTS-induced cell death, the present invention uses transmission electron microscopy analysis to observe the changes in ultrastructures of Tca-8113 cells. Tca-8113 cells were treated with 40 μmol/l PTS or dimethyl sulfoxide for 1 h. The ultrastructural changes were observed using a transmission electron microscope. […] More secondary lysosomes (pointed by arrow) with high electron density were observed after PTS treatment. Lysosomal instability was proposed to control the fate of cells either through activation of apoptosis or necrosis.

[11] = system: Lysosomes of Tca-8113 cells; assay: Lysosomal integrity assay (LMP), lysosomal β-galactosidase free activity; type: biochemical; details: isolated lysosomes of Tca-8113 cells
Procedure: Next, a lysosomal integrity assay (LMP) is performed to assess the effects of PTS on lysosomal membrane integrity. Lysosomes of Tca-8113 cells were isolated using the Percoll gradient centrifugation method. The effects of PTS on lysosomal integrity were assessed by measuring the activity of lysosomal β-galactosidase using UMBG (4-methylumbelliferyl-β-D-galactoside). The 4-methylumbelliferone released was determined by measuring its fluorescence (excitation: 365 nm, emission: 444 nm) on a fluorescence spectrophotometer. The activity of the enzyme measured in the presence and absence of 0.36% Triton X-100 was designated the […], respectively.

cathepsin B = assay: Western blot analysis of cleaved cathepsin B; type: cell-based; details: Tca-8113 cells, 40 μmol/l PTS, 1 h
Procedure: In the western blot analysis, Tca-8113 cells are analyzed after 40 μmol/l PTS treatment for 1 h.

cytochrome c = assay: Western blot analysis of cytosolic cytochrome c; type: cell-based; details: Tca-8113 cells, 40 μmol/l and 80 μmol/l PTS, 1 h
Procedure: (§3) Increased lysosomal permeability is reported to induce mitochondrial damage and the release of pro-apoptotic factors. The applicant therefore investigated the cytosolic cytochrome c released from the mitochondria after PTS treatment. […] Inhibition of ATP biosynthesis is observed when Tca-8113 cells were treated with 40 μmol/l PTS or DMSO for […]. The effects of PTS on ATP biosynthesis were assessed by measuring chemiluminescence. […] 40 μmol/l PTS treatment for 1 h attenuated ATP biosynthesis to 65.8%.

[12] = system: mitochondrial ATP biosynthesis in Tca-8113 cells; assay: ATP biosynthesis by chemiluminescence; type: cell-based; details: 40 μmol/l PTS
Procedure: as §3

[13] = cited from earlier work
[14] = 10 μmol/l for 1 h, MTT 72 h after treatment
[15] = read-out: Viable cells (Annexin V−/PI−)

SMILES: Cc1ccc(S(N)(=O)=O)cc1 [PTS, para-toluenesulfonamide]
- intracellular PTS concentration (Tca-8113 cells [1]): increase the intracellular PTS concentration in Tca-8113 cells in a dose dependent manner
- intracellular PTS concentration variation between Tca-8113 cells and HGF cells (Tca-8113 cells [1]; 20 μmol/l): 5 ×
- intracellular PTS concentration variation between Tca-8113 cells and HGF cells (Tca-8113 cells [1]; 40 μmol/l): 8 ×
- intracellular PTS concentration variation between Tca-8113 cells and HGF cells (Tca-8113 cells [1]; 80 μmol/l): 12
- intracellular PTS accumulation [2]: significantly inhibited in HGF cells compared with that in Tca-8113 cells
- Tca-8113 cells suppressed (Tca-8113 cells [3]; [14]): about 50%
- suppression ratio (cancer cell suppression %/normal cell suppression %) (Tca-8113 cells [3]; 10 μmol/l): 5
- suppression ratio (cancer cell suppression %/normal cell suppression %) (Tca-8113 cells [3]; 20 μmol/l): 2.6
- suppression ratio (cancer cell suppression %/normal cell suppression %) (Tca-8113 cells [3]; 40 μmol/l): 1.8
- number of viable cells (Tca-8113 cells [3]; 80 μmol/l PTS for 1 h, MTT 72 h after treatment): almost completely suppressed the number of viable cells
- suppression ratio (cancer cell suppression %/normal cell suppression %) (Tca-8113 cells [3]; 80 μmol/l): 1.05
- viability of Tca-8113 cells (Tca-8113 cells [3]; 2.5-80 μmol/l PTS for 1 h, MTT 72 h after treatment): significantly reduced the viability of Tca-8113 cells in a dose-dependent manner
- HGF cells suppressed [4, 14]: 10%
- inhibitory effects of PTS in HGF cells ([4]; human, 1 h): significantly decreased compared with that in Tca-8113 cells
- morphologic changes (Tca-8113 cells [5]): induce classical apoptotic features including cell shrinkage, nuclear condensation, cell density reduction, and apoptotic body formation
- number of viable cells (colony formation) (Tca-8113 cells [6]): almost completely suppressed the number of viable cells
- Late apoptotic/necrotic rate (Annexin V+/PI+) (Tca-8113 cells [7]; 40 μmol/l PTS): 11.5%
- early apoptotic rate (Annexin V+/PI−) (Tca-8113 cells [7]; 40 μmol/l PTS): 20.2%
- Late apoptotic/necrotic rate (Annexin V+/PI+) (Tca-8113 cells [7]; 80 μmol/l PTS): 15.9%
- early apoptotic rate (Annexin V+/PI−) (Tca-8113 cells [7]; 80 μmol/l PTS): 64.1%
- viability at 40 µM (Tca-8113 cells [7]; [15]): 67.5%
- viability at 80 µM (Tca-8113 cells [7]; [15]): 19.8%
- LDH release compared with the control group (Tca-8113 cells [8]): two-fold increase
- invasive ability (cell migration) (Tca-8113 cells [9]): significantly reduced the invasive ability of Tca-8113 cells
- ultrastructural changes (Tca-8113 cells [10]): shrunk nuclei and an irregular nuclear membrane
- free enzyme activity (lysosomal β-galactosidase) [11]: significantly increase free enzyme activity in a dose-dependent manner
- cleaved cathepsin B expression (cathepsin B): significantly increases cleaved cathepsin B expression
- cytosolic cytochrome c expression (cytochrome c): significantly induced cytosolic cytochrome c expression
- mitochondrial ATP biosynthesis ([12]; 24-48 h): significantly inhibited mitochondrial ATP biosynthesis in a time-dependent manner
- ATP biosynthesis attenuated to ([12]; 1 h): 65.8%
- solubility in water or a water-based solution [13]: not readily dissolved in water or in a water-based solution
